Experimental data: patent publication EP3928779A1 (Chugai Seiyaku Kabushiki Kaisha, priority 2014, dated 2016)

Columns and labels:
[1] = test system: rat small-intestinal brush border membrane vesicles; test: Inhibitory effect on 33PO4 uptake into rat small-intestinal brush border membrane vesicles (rapid filtration method); format: biochemical; settings: 33PO4 uptake into rat small-intestinal BBMVs; test compound 1 µM; reacted for 60 seconds
Outline: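 Uptake of ^33PO4 was measured by rapid filtration and liquid scintillation counting of filter-retained vesicles, after quenching with ice-cold 110 mM NaCl/1 mM KH2PO4/10 mM HEPES pH 7.5. Vesicles were brush border membranes from the upper small intestine of female Wistar rats aged 4–5 weeks.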

[2] = test system: chronic kidney disease model rat; test: Suppressive effect on rise in serum creatinine concentration of chronic kidney disease model rat; format: in vivo; settings: suppression of a rise in serum creatinine concentration, dosage 0.1% in feed for 14 weeks
Description: (§1) A group given feed non-supplemented with the test compound was used as a reference pathological group, and a group neither subjected to the kidney removal nor antibody administration and given feed non-supplemented with the test compound was used as a normal group. Fourteen weeks after the start of administration of the test compound, blood was collected from the abdominal aorta and serum was collected. As an indicator of renal damage, serum creatinine concentrations were measured by an enzyme assay (creatinase-sarcosine oxidase-POD method). The rate of suppression of a rise in serum creatinine concentration was determined according to the following expression: Rate (%) of suppression of a rise in serum creatinine concentration = (1−[(Serum creatinine concentration of the test compound−treated pathological group)−(Serum ceatinine concentration of the […])]/[(Serum creatinine concentration of the reference pathological group)−(Serum creatinine concentration of the normal group)]) × 100 [formula]
As a result, the test compound was confirmed to have a suppressive effect on a rise in serum creatinine concentration, namely, a suppressive effect on renal damage. […]

[3] = test system: chronic kidney disease model rat; test: Suppressive effect on rise in serum parathyroid hormone concentration of chronic kidney disease model rat; format: in vivo; settings: suppression of a rise in serum parathyroid hormone concentration
Description: as §1
Using serum collected from the same animal as that in test example 7 after 14 weeks from the start of administration of the test compound, concentrations of serum parathyroid hormone were measured by the ELISA method. […]

[4] = test system: chronic kidney disease model rat; test: Suppressive effect on calcium deposition in blood vessel of chronic kidney disease model rat; format: in vivo; settings: suppression of calcium deposition in blood vessel (thoracic aorta)
Description: as §1
From the same animal as that in Test Example 7, the thoracic aorta was collected 14 weeks after the start of administration of the test compound, and the dry weight was measured. […]

[5] = test system: Adenine-induced renal failure rats; test: Suppressive effect on rise in serum phosphorus concentration by combined use with sevelamer carbonate (adenine-induced renal failure rat); format: in vivo; settings: 14 days
Source text: Adenine was forcedly administered orally to each Wistar male rat (7-8 weeks old) to impair renal functions and thereby prepare a hyperphosphatemia model (Katsumata K, Kusano K, Hirata M, Tsunemi K, Nagano N, Burke SK, Fukushima N. Sevelamer hydrochloride prevents ectopic calcification and renal osteodystrophy in chronic renal failure rats. Kidney Int. 2003 Aug; 64 (2): 441-50). Each test compound was mixed at a ratio of 0.1% of mass concentration with feed. The animal was fed with a given amount of the feed for 3 days. A group given feed non-supplemented with a test compound was used as a reference pathological group, and an adenine-unadministered group given feed non-supplemented with a test compound was used as a normal group. 3 days after the start of administration of the test compound, blood was collected from the jugular vein, and serum was collected. Serum phosphorus concentrations were measured by the Fiske-Subbarow method. The rate of suppression of a rise in serum phosphorus concentration was determined according to the following expression: Rate (%) of suppression of a rise in serum phosphorus concentration = (1−[(Serum phosphorus concentration of the test compound−treated pathological group)−(Serum phosphorus concentration of the normal group)]/[(Serum phosphorus concentration of the reference pathological group)−(Serum phosphorus concentration of the normal group)]) × 100 [formula]
Adenine-induced renal failure rats were prepared in the same manner as in Test Example 5. […] Serum phosphorus concentrations were measured by the Fiske-Subbarow method. The rate of suppression of a rise in serum phosphorus concentration was determined according to the following expression: Rate (%) of suppression of a rise in serum phosphorus concentration = (1−[(Serum phosphorus concentration of the compound−treated pathological group)−(Serum phorphorus concentration of the normal group)]/[(Serum phosphorus concentration of the reference pathological group)−(Serum phosphorous concentration of the normal group)]) × 100 [formula] […]

[6] = dosage 0.1% in feed for 14 weeks
[7] = dosage 0.3% in feed for 14 weeks

COCCN(C)CCOc1ccc(CN2C(=O)C(C(=O)Nc3ccc(C(F)(F)F)cc3-c3cc(C(F)(F)F)ncn3)=C(O)C3(CCCC3)N2C)c(F)c1F [Example 14, 7-[[2,3-Difluoro-4-[2-[2-methoxyethyl(methyl)amino]ethoxy]phenyl]methyl]-10-hydroxy-6-methyl-8-oxo-N-[4-(trifluoromethyl)-2-[6-(trifluoromethyl)pyrimidin-4-yl]phenyl]-6,7-diazaspiro[4.5]dec-9-ene-9-carboxamide]
Rate of uptake inhibition (%) (1 µM) [1]: 29%
Rate of inhibition (%) [2]: 17%
Rate of inhibition (%) [3, 6]: 13%
Rate of inhibition (%) [3, 7]: 67%
Rate of inhibition (%) [4, 6]: 100%
Rate of inhibition (%) [4, 7]: 100%
Suppression rate of rise in serum phosphorus concentration (%) ([5]; test compound 0.05% by mass in combination with sevelamer carbonate 0.5% by mass in feed): 104%
Suppression rate of rise in serum phosphorus concentration (%) ([5]; test compound 0.05% by mass in feed alone (sevelamer carbonate 0%)): 61%
Suppression rate of rise in serum phosphorus concentration (%) ([5]; test compound 0.1% by mass in feed alone (sevelamer carbonate 0%)): 79%
